Results: ChEMBL document CHEMBL5634141 (Eur J Med Chem, 2023)
The source made the active and inactive calls. No cut-off for these calls is given here.

How the values were obtained:
NCI-H358 [1] = assay: Antiproliferative activity against human NCI-H358 cells expressing KRAS G12C mutant assessed as inhibition of cell growth incubated for 72 hrs by CCK-8 assay; assay type: functional, cell-based; conditions: NCI-H358, 72 h
[2] = test system: von Hippel-Lindau disease tumor suppressor/GTPase KRas (Homo sapiens), P01116+P40337 [G12C]; assay: PROTAC activity at VHL/KRAS G12C mutant in human NCI-H358 cells assessed as induction of protein degradation at 300 nM incubated for 24 hrs by Western blotting analysis relative to control; assay type: cell-based
[3] = test system: von Hippel-Lindau disease tumor suppressor/GTPase KRas (Homo sapiens), P01116+P40337 [G12C]; assay: PROTAC activity at VHL/KRAS G12C mutant in human MIA PaCa-2 cells assessed as inhibition of ERK phosphorylation by Western blotting analysis; assay type: cell-based
[4] = test system: von Hippel-Lindau disease tumor suppressor/GTPase KRas (Homo sapiens), P01116+P40337 [G12C]; assay: PROTAC activity at VHL/KRAS G12C mutant in human NCI-H358 cells assessed as induction of protein degradation at 100 nM preincubated with AMG510 for 6 hrs followed by compound addition and measured after 48 hrs by Western blotting analysis; assay type: cell-based
[5] = test system: von Hippel-Lindau disease tumor suppressor/GTPase KRas (Homo sapiens), P01116+P40337 [G12C]; assay: PROTAC activity at VHL/KRAS G12C mutant in human MIA PaCa-2 cells assessed as induction of protein degradation at 100 nM incubated for 48 hrs followed by compound washout by Western blotting analysis; assay type: cell-based
NCI-H358 [6] = assay: Induction of apoptosis in human NCI-H358 cells assessed as early apoptotic cells at 30 nM incubated for 48 hrs by Annexin V-FITC staining based flow cytometry analysis (reference value: 1.60 %); assay type: functional
NCI-H358 [7] = assay: Induction of apoptosis in human NCI-H358 cells assessed as late apoptotic cells at 30 nM incubated for 48 hrs by Annexin V-FITC staining based flow cytometry analysis (reference value: 5.20 %); assay type: functional
NCI-H358 [8] = assay: Induction of apoptosis in human NCI-H358 cells assessed as viable cells at 100 nM incubated for 48 hrs by Annexin V-FITC staining based flow cytometry analysis (reference value: 91.6 %); assay type: functional; conditions: read-out: Activity
NCI-H358 [9] = assay: Induction of apoptosis in human NCI-H358 cells assessed as viable cells at 300 nM incubated for 48 hrs by Annexin V-FITC staining based flow cytometry analysis (reference value: 91.6 %); assay type: functional; conditions: read-out: Activity
MIA PaCa-2 [10] = assay: Induction of apoptosis in human MIA PaCa-2 cells assessed as viable cells at 100 nM incubated for 48 hrs by Annexin V-FITC staining based flow cytometry analysis (reference value: 91.5 %); assay type: functional; conditions: read-out: Activity
MIA PaCa-2 [11] = assay: Inhibition of cell migration in human MIA PaCa-2 cells incubated for 12 hrs by wound healing assay; assay type: functional, cell-based; conditions: dose 30-300 nM
Mus musculus = assay: In vivo PROTAC activity at VHL/KRAS G12C mutant in BALB/c nude mouse xenografted with human MIA PaCa-2 cells assessed as decrease in ERK phosphorylation at 10 to 30 mg/kg, ip administered for 16 days by Western blot analysis; assay type: functional, organism-based; conditions: dose 10-30 mg/kg, time 16.0 day
[12] = AUC (0 to infinity) in ICR mouse at 2 mg/kg, iv measured after 24 hrs by LC-MS/MS analysis; assay type: ADME, organism-based; conditions: in vivo
[13] = test system: von Hippel-Lindau disease tumor suppressor/GTPase KRas (Homo sapiens), P01116+P40337 [G12C]; assay: PROTAC activity at VHL/KRAS G12C mutant in human MIA PaCa-2 cells assessed as induction of protein degradation at 100 nM incubated for 1 to 8 days by Western blotting analysis; assay type: cell-based; conditions: time 1-8 day
MIA PaCa-2 [14] = assay: Antiproliferative activity against human MIA PaCa-2 cells expressing KRAS G12C mutant assessed as relative cell viability at 30 nM incubated for 72 hrs in presence of infigratinib by CCK-8 assay; assay type: functional; conditions: read-out: Activity
SW837 = assay: Antiproliferative activity against human SW837 cells expressing KRAS G12C mutant assessed as relative cell viability at 30 nM incubated for 72 hrs in presence of MK-2206 by CCK-8 assay; assay type: functional; conditions: read-out: Activity
MIA PaCa-2 [15] = assay: Antiproliferative activity against human MIA PaCa-2 cells expressing KRAS G12C mutant assessed as relative cell viability at 30 nM incubated for 72 hrs in presence of selumetinib by CCK-8 assay; assay type: functional; conditions: read-out: Activity
NCI-H358 [16] = assay: Antiproliferative activity against human NCI-H358 cells expressing KRAS G12C mutant assessed as relative cell viability at 30 nM incubated for 72 hrs in presence of daclolisib by CCK-8 assay; assay type: functional; conditions: read-out: Activity
MIA PaCa-2 [17] = assay: Antiproliferative activity against human MIA PaCa-2 cells expressing KRAS G12C mutant assessed as relative cell viability at 30 nM incubated for 72 hrs in presence of daclolisib by CCK-8 assay; assay type: functional; conditions: read-out: Activity
NCI-H358 [18] = assay: Antiproliferative activity against human NCI-H358 cells expressing KRAS G12C mutant assessed as reduction of cell growth by measuring fold decrease in IC50 incubated for 72 hrs in presence of AZD4573 by CCK-8 assay; assay type: functional
MIA PaCa-2 [19] = assay: Antiproliferative activity against human MIA PaCa-2 cells expressing KRAS G12C mutant assessed as reduction of cell growth by measuring fold decrease in IC50 incubated for 72 hrs in presence of Linsitinib by CCK-8 assay; assay type: functional
NCI-H358 [20] = assay: Inhibition of colony formation in human NCI-H358 cells expressing KRAS G12C mutant assessed as reduction in cell number at 30 nM incubated for 14 days in presence of linsitinib by crystal violet staining based analysis; assay type: functional; conditions: time 14.0 day
[21] = Toxicity in ICR mouse assessed as side effects at 2 mg/kg, iv measured after 24 hrs; assay type: organism-based; conditions: in vivo
[22] = test system: von Hippel-Lindau disease tumor suppressor/GTPase KRas (Homo sapiens), P01116+P40337 [G12C]; assay: PROTAC activity at VHL/KRAS G12C mutant in human NCI-H358 cells assessed as inhibition of AKT phosphorylation at 100 nM incubated for 1 to 8 days by Western blotting analysis; assay type: cell-based; conditions: time 1-8 day

C=CC(=O)N1CCN(c2nc(=O)n(-c3c(C)ccnc3C(C)C)c3nc(-c4c(F)cccc4OCC4CCN(CCCC(=O)N[C@H](C(=O)N5C[C@H](O)C[C@H]5C(=O)NCc5ccc(-c6scnc6C)cc5)C(C)(C)C)CC4)c(F)cc23)[C@@H](C)C1
IC50 (NCI-H358 [1]): 91 nM | Activity [2]: 100% | Activity [3]: Dose-Dependent Effect | Activity [4]: inactive | Activity [5]: Active | Activity (NCI-H358 [6]): 3.48% | Activity (NCI-H358 [7]): 6.13% | viability at 0.1 µM (NCI-H358 [8]): 85.9% | viability at 0.3 µM (NCI-H358 [9]): 79.6% | viability at 0.1 µM (MIA PaCa-2 [10]): 75.7% | inhibition (MIA PaCa-2 [11]): Dose-Dependent Effect | Activity (Mus musculus): Active | AUC [12]: 404 ng·h/mL | Activity [13]: Active | viability at 0.03 µM (MIA PaCa-2 [14]): 0.35% | viability at 0.03 µM (SW837): 0.34% | viability at 0.03 µM (MIA PaCa-2 [15]): 0.1% | viability at 0.03 µM (NCI-H358 [16]): 0.29% | viability at 0.03 µM (MIA PaCa-2 [17]): 0.17% | fold change (FC) (NCI-H358 [18]): ~6 | fold change (FC) (MIA PaCa-2 [19]): ~3 | inhibition (NCI-H358 [20]): Active | Activity [21]: Non-Toxic | Activity [22]: Active
